According to US20250100968A1, “BICYCLIC-HETEROCYCLE DERIVATIVES AND RELATED USES” (CENTESSA PHARMACEUTICALS (UK) LIMITED, priority 2022, published 2025):
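For EC50 in this document: agonist activity in CHO cells stably expressing hOX2R, intracellular Ca2+ via Calcium 5 dye fluorescence area over 2 min, buffer-only as 0% and 10 nM orexin A as 100%.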

Target: T1, human orexin type 2 receptor (hOX2R) (Homo sapiens, UniProt O43614)
T1 sequence (O43614 1-444): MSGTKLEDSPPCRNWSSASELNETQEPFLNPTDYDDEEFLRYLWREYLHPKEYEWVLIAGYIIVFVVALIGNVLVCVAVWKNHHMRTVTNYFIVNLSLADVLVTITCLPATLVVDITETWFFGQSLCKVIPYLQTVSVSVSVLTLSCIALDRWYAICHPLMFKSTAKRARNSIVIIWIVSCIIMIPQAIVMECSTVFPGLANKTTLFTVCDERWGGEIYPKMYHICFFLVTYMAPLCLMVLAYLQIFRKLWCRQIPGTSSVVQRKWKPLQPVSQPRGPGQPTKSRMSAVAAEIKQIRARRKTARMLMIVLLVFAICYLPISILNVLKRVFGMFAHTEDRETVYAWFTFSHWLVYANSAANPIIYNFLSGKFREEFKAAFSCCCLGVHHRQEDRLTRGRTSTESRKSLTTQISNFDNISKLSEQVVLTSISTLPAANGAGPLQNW
Assay: cell-based
Settings: not given
For `CO[C@H](C)C(=O)N1CC2(CC2)[C@H](NS(=O)(=O)C(F)F)[C@@H]1Cc1cccc(-c2cc(F)cc(F)c2)c1F` [compound 64, 1,1-difluoro-N-((6S,7S)-5-((R)-2-methoxypropanoyl)-6-((2,3′,5′-trifluoro-[1,1′-biphenyl]-3-yl)methyl)-5-azaspiro[2.4]heptan-7-yl)methanesulfonamide], the EC50 was 1 to 10 nM. In the case of `O=C([C@@H](O)C1CC1)N1CC2(CC2)[C@H](NS(=O)(=O)C(F)F)[C@@H]1Cc1cc(F)cc(-c2ccccc2)c1F` [compound 27, N-((6S,7S)-5-((S)-2-cyclopropyl-2-hydroxyacetyl)-6-((2,5-difluoro-[1,1′-biphenyl]-3-yl)methyl)-5-azaspiro[2.4]heptan-7-yl)-1,1-difluoromethanesulfonamide], the EC50 is reported as 0.0631 to 1 nM. `COC[C@@H](F)C(=O)N1CC2(CC2)[C@H](NS(=O)(=O)C(F)F)[C@@H]1Cc1cccc(-c2cc(F)cc(F)c2)c1F` [compound 66, 1,1-difluoro-N-((6S,7S)-5-((R)-2-fluoro-3-methoxypropanoyl)-6-((2,3′,5′-trifluoro-[1,1′-biphenyl]-3-yl)methyl)-5-azaspiro[2.4]heptan-7-yl)methanesulfonamide] showed an EC50 of 1 to 10 nM. Compound `N#C[C@]1(C(=O)N2CC3(CC3)[C@H](NS(=O)(=O)CF)[C@@H]2Cc2cccc(-c3cc(F)cc(F)c3)c2F)CCO1` [compound 47, N-((6S,7S)-5-((S)-2-cyanooxetane-2-carbonyl)-6-((2,3′,5′-trifluoro-[1,1′-biphenyl]-3-yl)methyl)-5-azaspiro[2.4]heptan-7-yl)-1-fluoromethanesulfonamide] has an EC50 of 1 to 10 nM. With `O=C([C@H](O)CF)N1CC2(CC2)[C@H](NS(=O)(=O)CF)[C@@H]1Cc1cccc(-c2cc(F)cc(F)c2)c1F` [compound 23, 1-fluoro-N-((6S,7S)-5-((S)-3-fluoro-2-hydroxypropanoyl)-6-((2,3′,5′-trifluoro-[1,1′-biphenyl]-3-yl)methyl)-5-azaspiro[2.4]heptan-7-yl)methanesulfonamide] the EC50 was 1 to 10 nM. With `CC[C@](C)(O)C(=O)N1CC2(CC2)[C@H](NS(=O)(=O)C(F)F)[C@@H]1Cc1cccc(-c2cc(F)cc(F)c2)c1F` [compound 78, 1,1-difluoro-N-((6S,7S)-5-((S)-2-hydroxy-2-methylbutanoyl)-6-((2,3′,5′-trifluoro-[1,1′-biphenyl]-3-yl)methyl)-5-azaspiro[2.4]heptan-7-yl)methanesulfonamide] the EC50 was 1 to 10 nM. For `C[C@H](CF)NC(=O)N1CC2(CC2)[C@H](NS(=O)(=O)C2(F)CC2)[C@@H]1Cc1cccc(-c2ccccc2)c1F` [compound 86, (6S,7S)-6-((2-fluoro-[1,1′-biphenyl]-3-yl)methyl)-7-((1-fluorocyclopropane)-1-sulfonamido)-N-((R)-1-fluoropropan-2-yl)-5-azaspiro[2.4]heptane-5-carboxamide], the EC50 was 0.0631 to 1 nM. With `C[C@](O)(C(=O)N1CC2(CC2)[C@H](NS(=O)(=O)CF)[C@@H]1Cc1cccc(-c2cccc(F)c2)c1F)C(F)F` [compound 6, N-((6S,7S)-5-((S)-3,3-difluoro-2-hydroxy-2-methylpropanoyl)-6-((2,3′-difluoro-[1,1′-biphenyl]-3-yl)methyl)-5-azaspiro[2.4]heptan-7-yl)-1-fluoromethanesulfonamide] the EC50 was 0.0631 to 1 nM. For `O=C([C@H]1CCO1)N1CC2(CC2)[C@H](NS(=O)(=O)C2(F)CC2)[C@@H]1Cc1cccc(-c2cc(F)cc(F)c2)c1F` [compound 36, 1-fluoro-N-((6S,7S)-5-((R)-oxetane-2-carbonyl)-6-((2,3′,5′-trifluoro-[1,1′-biphenyl]-3-yl)methyl)-5-azaspiro[2.4]heptan-7-yl)cyclopropane-1-sulfonamide], the EC50 was 0.0631 to 1 nM. With `CO[C@H](C)C(=O)N1CC2(CC2)[C@H](NS(=O)(=O)CF)[C@@H]1Cc1cccc(-c2cc(F)cc(F)c2)c1F` [compound 68, 1-fluoro-N-((6S,7S)-5-((R)-2-methoxypropanoyl)-6-((2,3′,5′-trifluoro-[1,1′-biphenyl]-3-yl)methyl)-5-azaspiro[2.4]heptan-7-yl)methanesulfonamide] the EC50 was 1 to 10 nM. For `CC(C)NC(=O)N1CC2(CC2)[C@H](NS(=O)(=O)CF)[C@@H]1Cc1cccc(-c2ccccc2)c1F` [compound 82, (6S,7S)-6-((2-fluoro-[1,1′-biphenyl]-3-yl)methyl)-7-((fluoromethyl)sulfonamido)-N-isopropyl-5-azaspiro[2.4] heptane-5-carboxamide], the EC50 was 1 to 10 nM. In the case of `CC(C)S(=O)(=O)N[C@@H]1[C@H](Cc2cc(F)cc(-c3cc(F)cc(F)c3)c2F)N(C(=O)[C@H]2CCO2)CC12CC2` [compound 20, N-((6S,7S)-5-((R)-oxetane-2-carbonyl)-6-((2,3′,5,5′-tetrafluoro-[1,1′-biphenyl]-3-yl)methyl)-5-azaspiro[2.4]heptan-7-yl)propane-2-sulfonamide], the EC50 is reported as 0.0631 to 1 nM. Work on `N#CC1(C(=O)N2CC3(CC3)[C@H](NS(=O)(=O)CF)[C@@H]2Cc2cc(F)cc(-c3ccccc3)c2F)CC1` [compound 76, N-((6S,7S)-5-(1-cyanocyclopropane-1-carbonyl)-6-((2,5-difluoro-[1,1′-biphenyl]-3-yl)methyl)-5-azaspiro[2.4]heptan-7-yl)-1-fluoromethanesulfonamide] yielded an EC50 of 0.0631 to 1 nM. In the case of `C[C@@H](F)S(=O)(=O)N[C@@H]1[C@H](Cc2cc(F)cc(-c3cc(F)cc(F)c3)c2F)N(C(=O)[C@H]2CCO2)CC12CC2` [compound 57, (S)-1-fluoro-N-((6S,7S)-5-((R)-oxetane-2-carbonyl)-6-((2,3′,5,5′-tetrafluoro-[1,1′-biphenyl]-3-yl)methyl)-5-azaspiro[2.4]heptan-7-yl)ethane-1-sulfonamide], the EC50 is reported as 1 to 10 nM. For `O=C(C(O)CF)N1CC2(CC2)[C@H](NS(=O)(=O)C(F)F)[C@@H]1Cc1cccc(-c2cccc(F)c2)c1F` (mixture of isomers) [compound 29, N-((6S,7S)-6-((2,3′-difluoro-[1,1′-biphenyl]-3-yl)methyl)-5-((RS)-3-fluoro-2-hydroxypropanoyl)-5-azaspiro[2.4]heptan-7-yl)-1,1-difluoromethanesulfonamide], the EC50 was 0.0631 to 1 nM. With `O=C([C@@H](O)C1CC1)N1CC2(CC2)[C@H](NS(=O)(=O)C(F)F)[C@@H]1Cc1cccc(-c2cc(F)cc(F)c2)c1F` [compound 32, N-((6S,7S)-5-((S)-2-cyclopropyl-2-hydroxyacetyl)-6-((2,3′,5′-trifluoro-[1,1′-biphenyl]-3-yl)methyl)-5-azaspiro[2.4]heptan-7-yl)-1,1-difluoromethanesulfonamide] the EC50 was 1 to 10 nM. For `C[C@@H](F)S(=O)(=O)N[C@@H]1[C@H](Cc2cccc(-c3cc(F)cc(F)c3)c2F)N(C(=O)C2CCO2)CC12CC2` (mixture of isomers) [compound 43, (S)-1-fluoro-N-((6S,7S)-5-((RS)-oxetane-2-carbonyl)-6-((2,3′,5′-trifluoro-[1,1′-biphenyl]-3-yl)methyl)-5-azaspiro[2.4]heptan-7-yl)ethane-1-sulfonamide], the EC50 was 1 to 10 nM. `CC(C)(F)CNC(=O)N1CC2(CC2)[C@H](NS(=O)(=O)CF)[C@@H]1Cc1cccc(-c2cccc(F)c2)c1F` [compound 73, (6S,7S)-6-((2,3′-difluoro-[1,1′-biphenyl]-3-yl)methyl)-N-(2-fluoro-2-methylpropyl)-7-((fluoromethyl)sulfonamido)-5-azaspiro[2.4]heptane-5-carboxamide] gave an EC50 of 1 to 10 nM.

Target: T2, OX2R (Homo sapiens, UniProt O43614)
T2 construct: host or cells: individuals with NT1
T2 sequence (O43614 1-444): T1 sequence (O43614 1-444)
Assay: not given
Settings: individuals with NT1; initial clinical studies; cited from earlier work
In the case of `COC(=O)N1CCC[C@H](NS(C)(=O)=O)[C@@H]1CO[C@H]1CC[C@@H](c2ccccc2)CC1` [TAK-925], the cataplexy is listed as “trends for decreasing cataplexy” and the wakefulness is listed as “substantial levels of increased wakefulness”.

Target: T3, OX2R (Mus musculus, UniProt P58308)
T3 construct: host or cells: mice (WT, orexin-deficient, orexin-neuron ablated)
T3 sequence (P58308 1-460): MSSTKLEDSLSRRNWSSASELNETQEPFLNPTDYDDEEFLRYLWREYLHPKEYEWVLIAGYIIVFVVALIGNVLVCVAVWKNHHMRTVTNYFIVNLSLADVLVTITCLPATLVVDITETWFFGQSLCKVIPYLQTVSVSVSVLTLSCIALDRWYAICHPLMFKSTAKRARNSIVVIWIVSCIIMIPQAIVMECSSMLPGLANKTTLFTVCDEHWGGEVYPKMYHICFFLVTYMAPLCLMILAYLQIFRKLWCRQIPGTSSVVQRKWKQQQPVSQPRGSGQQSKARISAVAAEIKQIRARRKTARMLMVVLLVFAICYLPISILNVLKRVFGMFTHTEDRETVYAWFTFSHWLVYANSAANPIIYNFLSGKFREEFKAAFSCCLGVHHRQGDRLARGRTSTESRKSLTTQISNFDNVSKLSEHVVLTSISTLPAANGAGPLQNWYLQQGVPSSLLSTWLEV
Assay: not given
Settings: intraperitoneally or ICV; NT1 mouse model; cited from earlier work
For `COc1ccc(-c2cccc(C(=O)N(C)C)c2)cc1S(=O)(=O)Nc1cccc(NCCNC(=O)c2ccccc2N(C)C)c1` [YNT-185], the “sleep-onset REM periods and cataplexy-like events” value is given as “decrease sleep-onset REM periods and cataplexy-like events”.

Same assay, conditions: intraperitoneally or ICV; wild type (WT) and orexin ligand-deficient mice; cited from earlier work
In the case of `COc1ccc(-c2cccc(C(=O)N(C)C)c2)cc1S(=O)(=O)Nc1cccc(NCCNC(=O)c2ccccc2N(C)C)c1` [YNT-185], the wakefulness is listed as “modestly increases wakefulness”.

Same assay, conditions: subcutaneous administration; WT mice; cited from earlier work
For `COC(=O)N1CCC[C@H](NS(C)(=O)=O)[C@@H]1CO[C@H]1CC[C@@H](c2ccccc2)CC1` [TAK-925], the wakefulness is listed as “modestly increased wakefulness”.
